Patent US20150190377A1, “NEURONAL REGENERATION” (The Regents of the University of California, a California …, priority 2014, published 2015)
Changes are numbered by the printed parent chain.

Assays:
SOCS3 [1] = molecular target: T1, SOCS3 (Homo sapiens, UniProt O14543); assay: Western blot of phosphorylated STAT3 (SOCS3 inhibition), human 293 cells; assay type: cell-based; details: increasing concentration
T1 construct: Western blot analysis of cultured human (293) cells; endogenous in cells; host or cells: human 293 cells
T1 sequence (O14543 1-225): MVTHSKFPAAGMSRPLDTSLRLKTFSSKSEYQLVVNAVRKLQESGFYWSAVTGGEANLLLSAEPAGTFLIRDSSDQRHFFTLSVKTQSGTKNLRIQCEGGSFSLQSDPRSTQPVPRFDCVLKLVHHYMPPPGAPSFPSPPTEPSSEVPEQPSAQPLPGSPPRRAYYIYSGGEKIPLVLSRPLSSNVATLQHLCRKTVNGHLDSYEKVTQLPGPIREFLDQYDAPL
Description: (§1) Likewise, the inhibition of SOCS3 was tested following the phosphorylated form of STAT3.

SOCS3 [2] = molecular target: T2, SOCS3 (Mus musculus, UniProt O35718); assay: Western blot of phosphorylated STAT3 (SOCS3 inhibition), mouse N2A cells; assay type: cell-based; details: increasing concentration
T2 construct: Western blot analysis of cultured mouse (N2A) cells; endogenous in cells; host or cells: mouse N2A cells
T2 sequence (O35718 1-225): T1 sequence (O14543 1-225) with A133T, P137S, S138L, S152P, P155A, P160T, R162K
Description: as §1

SOCS3 [3] = molecular target: T3, SOCS3 (Rattus norvegicus, UniProt O88583); assay: Western blot of phosphorylated STAT3 (SOCS3 inhibition), rat PC12 cells; assay type: cell-based; details: increasing concentration
T3 construct: Western blot analysis of cultured rat (PC12) cells; endogenous in cells; host or cells: rat PC12 cells
T3 sequence (O88583 1-225): T1 sequence (O14543 1-225) with K85E, P137S, S138L, S145F, P148Q, S152P, P155A, S159G, P160T, R162K
Description: as §1

PTEN [4] = molecular target: T4, PTEN (Homo sapiens, UniProt P60484); assay: Western blot of phosphorylated AKT (PTEN inhibition), human 293 cells; assay type: cell-based; details: increasing concentrations, pAKT (Ser473)
T4 construct: Western blot analysis of cultured human (293), mouse (N2A) and rat (PC12) cells; endogenous in cells; host or cells: human 293 cells
Description: (§2) FIGS. 13A-13D. Western blot analysis of cultured human (293) (FIG. 13A), mouse (N2A) (FIG. 13B) and rat (PC12) (FIG. 13C) cells treated with Luteolin (P2) and Quercetin (P6). FIG. 13D: Protein levels of PTEN, AKT, pAKT (Ser473) and beta-Tubulin were measured.
(§3) The inhibition of PTEN was tested following the phosphorylated form of AKT.

PTEN [5] = molecular target: T5, PTEN (Mus musculus, UniProt O08586); assay: Western blot of phosphorylated AKT (PTEN inhibition), mouse N2A cells; assay type: cell-based; details: increasing concentrations, pAKT (Ser473)
T5 construct: Western blot analysis of cultured human (293), mouse (N2A) and rat (PC12) cells; endogenous in cells; host or cells: mouse N2A cells
Description: as §2, §3

PTEN [6] = molecular target: T6, PTEN (Rattus norvegicus, UniProt O54857); assay: Western blot of phosphorylated AKT (PTEN inhibition), rat PC12 cells; assay type: cell-based; details: increasing concentrations, pAKT (Ser473)
T6 construct: Western blot analysis of cultured human (293), mouse (N2A) and rat (PC12) cells; endogenous in cells; host or cells: rat PC12 cells
Description: as §2, §3

[7] = tested on: genes from the M77 network in DRG neurons; assay: qPCR of critical PPI network genes in DRG neurons treated with ambroxol; assay type: cell-based; details: DRG neurons treated with 60 mM ambroxol (4 days), P-value<0.05, includes ATF3, FOS, JUN, SMAD1, SP1
Excerpt: (§4) FIGS. 5A-5F. Targeting candidate RAG regulatory network using small-molecules. Gene expression signatures after PNS injury were used to query drug-related expression profiles in the Connectivity Map. Using a pattern-matching algorithm, we selected three drugs (ambroxol, disulfiram and lasalocid) based on enrichment and specificity scores. FIG. 5A: Protein-protein interaction (edges) network of co-expressed and differentially expressed genes (nodes) after PNS injury depicting up-regulation and down-regulation after SN lesion; up-regulation and down-regulation after ambroxol treatment (from Connectivity Map). FIG. 5B: Histogram depicting differences in DRG neurite outgrowth after treatment with drugs. […] FIG. 5C: Histogram depicting differential expression of mRNA for critical genes in PPI network validated by qPCR of DRG neurons treated with […] ambroxol (4 days). Legend (FIG. 5C, top to bottom): ATF3, CASP3, EGR1, FOS, JAK2, JUN, KLF4, MYC, PLAUR, RELA, SMAD1, SP1, STAT1 and STAT3: FIGS. 5D-5F: Ambroxol concentration response. […] FIG. 5E: Photomicrographs of DRG neurons in presence of vehicle (control) or 40 μM ambroxol, immunostained for βIII-tubulin. Images acquired using ImagExpressmicro. Scale bar, 50 μm. FIG. 5F: Histogram depicting concentration-response for neurite outgrowth per neuron vs. ambroxol concentration, mean±SEM for three independent experiments. […]

[8] = tested on: optic nerve / retinal ganglion cell axons; assay: optic nerve regeneration after crush injury in C57BL/6 mice; assay type: in vivo, mouse; details: between 200-500 um, after 2 weeks, vs control animals, p-value less than 0.04
Description: FIGS. 6A-6E. Ambroxol promotes retinal ganglion cell axonal regeneration. FIG. 6A: Ambroxol (Amb-25 mg/ml) or vehicle (Veh) was injected into the eye just before optic nerve crush (ONC-Day 1). Animals received daily […] of ambroxol (25 mg/ml) or vehicle by intraperitoneal (IP) injection from day 1 to day 14. At day 7 ambroxol (25 mg/ml) or vehicle was injected into the eye. Tracer CTB was injected into the eye on day 11 and animals sacrificed on day 14. FIG. 6B: Representative retina whole mount images with Tuj1 antibody staining 2 weeks post injury and (FIG. 6C) histogram depicting quantification of retinal ganglion cell (RGCs) survival measured by Tuj1 antibody staining Scale bar: 25 um FIG. 6D: Representative confocal images of optic nerve sections from WT animal treated with vehicle (n=10) and WT animal treated with ambroxol (25 mg/ml, n=13). Axons are labeled with CTB. Scale bar: 100 um. Measurements were made blinded to treatment. FIG. 6F: Quantification of number of axons in FIG. 6D as function of distance from crush site. T-test ** p<0.001 * p<0.05.
Ambroxol was tested for the ability to enhance CNS regeneration in vivo after injury. The optic nerve regeneration effect in mice after crush injury was evaluated after treating with and without ambroxol. […] In summary, a FDA approved drug—ambroxol accelerates and improves neural repair in the CNS. […]

[9] = tested on: optic nerve / retinal ganglion cell axons; assay: optic nerve crush in PTEN knockout mice treated with ambroxol; assay type: in vivo, mouse; details: at 2500 um, after 2 weeks, vs control animals, p-value 0.02
Description: FIGS. 15A-15E. Ambroxol promotes retinal ganglion cell axonal regeneration in PTEN knockout mice. Ambroxol (Amb-25 mg/ml) or vehicle (Veh) was injected into the eye just before optic nerve crush. Animals received daily 300 mg/kg of ambroxol or vehicle by intraperitoneal (IP) injection for the first five days after the crush and then they received 150 mg/kg until day 14. At day 7 ambroxol (25 mg/ml) or vehicle was injected into the eye. Tracer CTB was injected into the eye on day 11 and animals sacrificed on day 14. FIG. 15A: Representative confocal images of optic nerve sections from PTEN^−/− animal treated with vehicle (n=4) and PTEN^−/− animal treated with ambroxol (n=4). Axons are labeled with CTB. Scale bar: 100 um. Measurements were made blinded to treatment. FIG. 15B: Quantification of number of axons in […]. T-test ** p<0.01 * p<0.05. FIG. 15C: Representative retina whole mount images with Tuj1 and P-S6 antibody staining 2 weeks post injury and FIGS. 15D-15E: Quantification of retinal ganglion cell (RGCs) survival measured by Tuj1 and P-S6 antibody staining Scale bar: 25 um.
Without wishing to be bound by any theory, since ambroxol recapitulates many of the core expression changes in the M280, we reasoned that it would promote CNS regeneration. […]

DRG neurons = assay: neurite outgrowth in DRG neurons after treatment with drugs; assay type: cell-based; details: vs control; p<0.05, t-test; FIG. 5B
Excerpt: as §4

[10] = tested on: regeneration-associated marker genes; assay: q-RT-PCR of regeneration-associated marker genes after treatment with candidate drugs; assay type: cell-based, mouse; details: N2A cell lines treated 48 hours, Gapdh internal control, FIG. 10
Description: FIG. 10. Quantitative real-time RT-PCR after treatment of candidate drugs. N2A cell lines were treated with the corresponding drugs for 48 hours and the expression levels of the marker genes was measured by q-RT-PCR, using Gapdh as internal control. Nodes represents the genes tested, the edges represent the direction of regulation (i.e., up-regulation, downregulation) and the edge size represents the extent of fold change.
The gene expression signatures were used to identify FDA approved drugs (Lamb 2007) that may modulate the signaling pathways and gene expression necessary for regeneration. […] Based on the results obtained from the pattern matching algorithm present within the Connectivity Map database, the top three matching expression patterns were chosen based on the connectivity and specificity score, which represented the drugs (ambroxol, lasalocid, and disulfiram). The identified compounds were tested for their effect on gene expression levels of regeneration-associated marker genes and to examine the effect on neurite outgrowth in DRG neurons. […] Since the original pattern was derived from non-neuronal cell lines (30), we tested if ambroxol can change the gene-expression levels of these markers in DRG neurons. […] But, it had no previous relationship to regeneration.

T5 sequence (O08586 whole entry): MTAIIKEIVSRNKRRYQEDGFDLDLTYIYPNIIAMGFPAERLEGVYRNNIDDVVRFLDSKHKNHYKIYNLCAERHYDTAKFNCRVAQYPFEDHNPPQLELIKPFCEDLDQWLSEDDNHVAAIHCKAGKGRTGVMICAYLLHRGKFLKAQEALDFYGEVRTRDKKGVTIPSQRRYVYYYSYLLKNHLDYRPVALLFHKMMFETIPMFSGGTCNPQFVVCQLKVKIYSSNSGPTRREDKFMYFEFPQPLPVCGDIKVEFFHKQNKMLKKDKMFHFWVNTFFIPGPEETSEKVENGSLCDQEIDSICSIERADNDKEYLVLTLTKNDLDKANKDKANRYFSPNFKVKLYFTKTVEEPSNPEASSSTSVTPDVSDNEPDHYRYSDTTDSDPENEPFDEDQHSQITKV
T4 sequence (P60484 whole entry): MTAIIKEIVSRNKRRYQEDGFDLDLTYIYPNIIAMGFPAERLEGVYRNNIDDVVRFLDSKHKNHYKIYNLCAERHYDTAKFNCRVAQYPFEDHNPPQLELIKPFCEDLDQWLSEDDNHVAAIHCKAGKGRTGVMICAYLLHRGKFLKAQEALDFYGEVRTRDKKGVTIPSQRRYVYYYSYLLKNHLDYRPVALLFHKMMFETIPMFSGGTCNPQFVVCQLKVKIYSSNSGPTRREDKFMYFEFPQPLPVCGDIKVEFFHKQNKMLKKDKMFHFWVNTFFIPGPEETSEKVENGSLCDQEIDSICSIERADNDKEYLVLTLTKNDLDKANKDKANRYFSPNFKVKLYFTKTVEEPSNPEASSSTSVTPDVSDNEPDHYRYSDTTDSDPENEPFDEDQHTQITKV
T6 sequence (O54857 whole entry): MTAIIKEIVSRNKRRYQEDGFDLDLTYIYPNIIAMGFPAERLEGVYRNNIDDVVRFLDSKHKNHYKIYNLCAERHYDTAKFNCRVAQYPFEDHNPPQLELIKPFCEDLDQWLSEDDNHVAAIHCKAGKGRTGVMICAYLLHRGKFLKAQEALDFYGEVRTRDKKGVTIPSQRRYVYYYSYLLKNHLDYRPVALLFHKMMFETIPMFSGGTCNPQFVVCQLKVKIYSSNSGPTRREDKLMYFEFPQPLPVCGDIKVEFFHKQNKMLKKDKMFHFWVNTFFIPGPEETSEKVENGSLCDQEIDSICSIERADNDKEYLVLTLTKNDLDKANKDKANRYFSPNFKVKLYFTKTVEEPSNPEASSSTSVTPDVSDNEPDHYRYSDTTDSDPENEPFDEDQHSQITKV

Compound | expression level of phosphorylated form of STAT3 (denoting SOCS3 inhibition) (SOCS3 [1]) | expression level of phosphorylated form of STAT3 (denoting SOCS3 inhibition) (SOCS3 [2]) | expression level of phosphorylated form of STAT3 (denoting SOCS3 inhibition) (SOCS3 [3]) | expression level of phosphorylated form of AKT (denoting PTEN inhibition) (PTEN [4]) | expression level of phosphorylated form of AKT (denoting PTEN inhibition) (PTEN [5]) | expression level of phosphorylated form of AKT (denoting PTEN inhibition) (PTEN [6]) | other results
O=c1c(-c2ccc(O)cc2)coc2cc(O)cc(O)c12 [Genistein, genistein] | increased expression level of phosphorylated form of STAT3 | increased expression level of phosphorylated form of STAT3 | increased expression level of phosphorylated form of STAT3 | – | – | – | –
O=c1cc(-c2ccc(O)c(O)c2)oc2cc(O)cc(O)c12 [Luteolin, luteolin] | – | – | – | increased expression level of phosphorylated form of AKT | increased expression level of phosphorylated form of AKT | increased expression level of phosphorylated form of AKT | –
Cc1ccc(N(CC2=NCCN2)c2cccc(O)c2)cc1 [Phentolamine, phentolamine] | increased expression level of phosphorylated form of STAT3 | increased expression level of phosphorylated form of STAT3 | increased expression level of phosphorylated form of STAT3 | – | – | – | –
O=c1c(O)c(-c2ccc(O)c(O)c2)oc2cc(O)cc(O)c12 [Quercetin, quercetin] | – | – | – | increased expression level of phosphorylated form of AKT | increased expression level of phosphorylated form of AKT | increased expression level of phosphorylated form of AKT | –
Nc1c(Br)cc(Br)cc1CNC1CCC(O)CC1 (stereo not drawn) [ambroxol, trans-4-(2-Amino-3,5-dibrombenzylamino)-cyclohexanol] | – | – | – | – | – | – | number of genes with significant differential expression among 14 randomly tested genes from the M77 [7]: 8 genes; increase in axon regeneration beyond the site of the lesion [8]: > 1.5 fold; increase in regeneration beyond the site of the lesion [9]: > 2.9 fold
CC[C@@H](C(=O)[C@@H](C)[C@@H](O)[C@H](C)CCc1ccc(C)c(O)c1C(=O)O)[C@H]1O[C@](CC)([C@H]2CC[C@](O)(CC)[C@H](C)O2)C[C@@H]1C [lasalocid] | – | – | – | – | – | – | DRG neurite outgrowth after treatment with drugs (DRG neurons): only ambroxol showed significant enhancement; gene-expression levels of marker RAGs [10]: significant changes
